According to patent US12201684B2, “Compositions for stimulation of mammalian innate immune resistance to pathogens” (priority 2009, dated 2025):

Key:
[1] = tested on: neutrophils and macrophages in BAL fluid; test: Bronchoalveolar lavage fluid leukocyte counts after aerosolized TLR ligands; assay type: in vivo, mice
[2] = tested on: P. aeruginosa strain PA103; test: In vivo inhalational P. aeruginosa challenge, survival; details: wild type mice; aerosolized treatment 24 h prior to challenge
[3] = cited from earlier work

poly(I:C)
influx of macrophages on BAL ([1]; 24 h after treatment): significant influx

monophosphoryl lipid A-synthetic [MPLA]
protection against lethal P. aeruginosa pneumonia (survival) [2]: non-significant trend towards increased mortality

CC(C)Cn1cnc2c(N)nc3ccccc3c21 [imiquimod, 1-(2-methylpropyl)-1H-imidazo[4,5-c]quinolin-4-amine]
neutrophil infiltration above a certain ligand concentration ([1]; BAL 24 h after treatment, highest concentrations tested): reduction in neutrophil infiltration
protection against lethal P. aeruginosa pneumonia (survival) [2]: trend towards protection

CCC(=O)O[C@]1(C(=O)SCF)[C@H](C)C[C@H]2[C@@H]3C[C@H](F)C4=CC(=O)C=C[C@]4(C)[C@@]3(F)[C@@H](O)C[C@@]21C [Fluticasone propionate, S-(fluromethyl)6α,9-difluoro-11β-17-dihydroxy-16α-methyl-3-oxoandrosta-1,4-diene-17β-carbothioate, 17-propionate]
solubility in dimethyl sulfoxide and dimethylformamide [3]: freely soluble
solubility in methanol and 95% ethanol [3]: slightly soluble
solubility in water [3]: practically insoluble
